Values quoted from earlier work in patent US20220304959A1, “TREATMENT OF LONG HAULERS SYNDROME WITH NICLOSAMIDE” (First Wave BioPharma, priority 2021, published 2022).

O=C(Nc1ccc([N+](=O)[O-])cc1Cl)c1cc(Cl)ccc1O [niclosamide, 5-chloro-N-(2-chloro-4-nitrophenyl)-2-hydroxybenzamide]
Overall safety profile (administered to millions of people, including children): very good safety profile
Less frequently reported AEs: rash, oral irritation, fever, rectal bleeding, weakness, bad taste in mouth, sweating, palpitation, constipation, alopecia, oedema of an arm, backache, irritability (human use, literature reports): < 1%
Other reported AEs: vomiting; abdominal discomfort possibly associated with anorexia, diarrhea, drowsiness, dizziness and headache (human use, literature reports): 1-4 % of patients
